Experimental findings from patent US20180215734A1, “PYRIMIDINE DERIVATIVES AS KINASE INHIBITORS AND THEIR THERAPEUTICAL APPLICATIONS” (NantBioScience, Inc., priority 2016, published 2018) are described below.

By half-life is commonly meant the time in which the quantity being followed falls by half. Usually GI50 stands for the concentration at which growth is held to half of that of the control. Read a low GI50 as more potent growth inhibition. A word on the inhibition: it is the change of the read-out against control, counted positive when it falls.

Chain of FGFR1(h) (P11362 22-822): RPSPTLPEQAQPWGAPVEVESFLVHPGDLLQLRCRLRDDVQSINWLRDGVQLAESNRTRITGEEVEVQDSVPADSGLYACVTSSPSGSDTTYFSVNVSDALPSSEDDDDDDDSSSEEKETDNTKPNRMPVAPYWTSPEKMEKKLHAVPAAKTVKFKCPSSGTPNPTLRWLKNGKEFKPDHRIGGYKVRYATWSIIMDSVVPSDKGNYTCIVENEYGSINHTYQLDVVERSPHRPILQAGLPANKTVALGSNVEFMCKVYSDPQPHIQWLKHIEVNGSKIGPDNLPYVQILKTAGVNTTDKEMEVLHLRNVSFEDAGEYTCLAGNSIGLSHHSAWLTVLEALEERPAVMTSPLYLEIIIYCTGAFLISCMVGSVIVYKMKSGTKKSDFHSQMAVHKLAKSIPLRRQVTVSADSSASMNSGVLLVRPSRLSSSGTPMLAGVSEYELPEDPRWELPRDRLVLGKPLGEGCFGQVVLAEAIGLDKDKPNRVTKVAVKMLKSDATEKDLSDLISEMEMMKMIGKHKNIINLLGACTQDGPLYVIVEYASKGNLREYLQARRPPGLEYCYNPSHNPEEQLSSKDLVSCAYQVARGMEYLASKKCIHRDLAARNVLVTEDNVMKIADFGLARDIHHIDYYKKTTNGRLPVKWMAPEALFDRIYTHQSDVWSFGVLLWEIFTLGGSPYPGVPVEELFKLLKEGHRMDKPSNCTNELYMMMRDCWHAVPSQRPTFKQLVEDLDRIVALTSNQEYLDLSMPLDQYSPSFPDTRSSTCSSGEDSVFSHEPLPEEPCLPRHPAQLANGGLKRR

Test system in the first data set: not listed separately
In words: Metabolic stability, rat liver microsomes. Type of data set: in vitro ADME.
Conditions: not given
As to `Cc1nc(Nc2ncc(C(=O)Nc3c(C)cccc3Cl)s2)cc(N2CCN(CCO)CC2)n1` [DASATINIB, dasatinib, reference compound], the half-life stood at 11.9 min.

Another data set concerns TG1a Human AML Xenograft. The data set can be described thus: Antitumor efficacy on TG1a human AML xenograft. Type of data set: in vivo, mouse. The settings on record: 20 mg/kg, Qdx10, IP. The protocol:
In this Example the antitumor activity of compounds 14, 17, 19, 45, and 48 of the current invention are tested using an art-recognized xenograft model of AML. (“T/C” refers to the ratio of the tumor's size in treated animals versus the tumor size in control untreated animals. “BWC” refers to “body weight change”).
As for `Cc1cc2c(F)c(Oc3ncnc(Nc4ccc(N5CCNCC5)cc4)c3C#N)cc(F)c2[nH]1` [Compound 14], the “BWC (%)” value is listed as −4.0%.
Same read-out and setting: the figure for `Cc1cc2c(F)c(Oc3ncnc(Nc4ccc(N5C[C@@H](C)N[C@@H](C)C5)cc4)c3C#N)ccc2[nH]1` [Compound 17] is −5.7%.
Still for that read-out and setting: the result for `Cc1cc2c(F)c(Oc3ncnc(Nc4ccc(N5C[C@@H](C)N(C)[C@@H](C)C5)cc4)c3C#N)cc(F)c2[nH]1` [Compound 45] reads −11.7%; that for `CCN1CCN(c2ccc(Nc3ncnc(Oc4cc(F)c5[nH]c(C)cc5c4F)c3C#N)cc2)CC1C` (centres unmarked) [Compound 48], −3.8%.

Staying with this data set, now noted: 20 mg/kg, Qdx10, IP, day14.
For the compound `Cc1cc2c(F)c(Oc3ncnc(Nc4ccc(N5CCNCC5)cc4)c3C#N)cc(F)c2[nH]1` [Compound 14], the “T/C (%) (day14)” value is −60.6%.
As to `Cc1cc2c(F)c(Oc3ncnc(Nc4ccc(N5C[C@@H](C)N[C@@H](C)C5)cc4)c3C#N)ccc2[nH]1` [Compound 17], the “T/C (%) (day14)” value is −79.5%.
`Cc1cc2c(F)c(Oc3ncnc(Nc4ccc(N5C[C@@H](C)N(C)[C@@H](C)C5)cc4)c3C#N)cc(F)c2[nH]1` [Compound 45]: the “T/C (%) (day14)” value came out at 4.9%.
In the case of `CCN1CCN(c2ccc(Nc3ncnc(Oc4cc(F)c5[nH]c(C)cc5c4F)c3C#N)cc2)CC1C` (centres unmarked) [Compound 48], the “T/C (%) (day14)” value was −72.8%.

In the next data set the test system is Kato III. In words: Inhibition of proliferation (CellTiterblue, 72 hr), Kato III. It is filed as cell-based. Particulars: Homo sapiens, KATO III, 72 h. As for the experimental part: (§1) A number of studies were performed to analyze the consequences of tyrosine kinase inhibition in cell lines. To do this, 1000 cells are seeded in 27 μl/well in 384-well microplates, which are then placed in a humidified CO2 incubator at 37° C. overnight. The next day, 3 μl/well of 10× concentrated drug is added and the plates are returned to the incubator for 72 hr. After 72 hr incubation, plates are removed and 6 μl/well CellTiterblue (Promega) viability reagent is added. Plates are returned to the incubator for 3 hrs, after which fluorescence measurements are read on the Victor X3 plate reader (Perkin Elmer). Data are analyzed using Excel (Microsoft), and GI50 values are determined using Prism (Graphpad).
On the technique in general: Alamar Blue is a resazurin reagent that responds to reducing activity.
`Cc1cc2c(F)c(Oc3ncnc(Nc4ccc(N5CCNCC5)cc4)c3C#N)cc(F)c2[nH]1` [Compound 14] returned a 50% growth inhibitory concentration (GI50) of 137 nM.
Take `Cc1cc2c(F)c(Oc3ncnc(Nc4ccc(N5C[C@@H](C)N[C@@H](C)C5)cc4)c3C#N)ccc2[nH]1` [Compound 17]: halving of growth (GI50) required 113 nM.
`Cc1cc2c(F)c(Oc3ncnc(Nc4ccc(N5C[C@@H](C)N(C)[C@@H](C)C5)cc4)c3C#N)cc(F)c2[nH]1` [Compound 45] came in with a GI50 of 79 nM.
The same measure, in the same setting: the result for `CCN1CCN(c2ccc(Nc3ncnc(Oc4cc(F)c5[nH]c(C)cc5c4F)c3C#N)cc2)CC1C` (centres unmarked) [Compound 48] reads 152 nM.

The next data set addresses FGFR1(h) (Homo sapiens, UniProt P11362). The data set can be described thus: Kinase assay, FGFR1(h). Type of data set: biochemical. The settings on record: 1 μM. The protocol: (§2) Kinase assay protocols well known to those of ordinary skill in the art were used. Specifically, the buffer composition was as follows: 20 mM MOPS, 1 mM EDTA, 0.01% Brij-35, 5% Glycerol, 0.1% β-mercaptoethanol, 1 mg/mL BSA. Test compounds were initially dissolved in DMSO at the desired concentration, then serially diluted to the kinase assay buffer. In a final reaction volume of 25 μL FGFR1(h) (5-10 mU) and KDR(h) (5-10 mU) are incubated with 8 mM MOPS pH 7.0, 0.2 mM EDTA, 200 μM LRRASLG (Kemptide), 10 mM magnesium acetate and [γ^33P-ATP]. The reaction was initiated by the addition of the MgATP mix. After incubation for 40 minutes at room temperature, the reaction was stopped by addition of 5 μL of a 3% phosphoric acid solution. Ten L of the reaction was then spotted onto a P30 filter mat and washed three times for 5 minutes in 50 mM phosphoric acid and once in methanol prior to drying and scintillation counting. Wells containing substrate but no kinase and wells containing a phosphopeptide control were used to set 0% and 100% phosphorylation value, respectively.
(§3) Of all of the steps in developing a drug, the hardest is finding promising compounds. (See, e.g., Malo et al., “Statistical practice in high-throughput screening data analysis,” Nature Biotechnology, 2006, 24, 167-75.) Kinase inhibitors often also have an anti-proliferative effect. […] The kinase inhibitory activity Compound 19 was tested using the kinase assay described in Example 3. […] These mutations in the tested kinases are thought to play an important role in transformation of some cancers.
For the compound `Cc1cc2c(F)c(Oc3ncnc(Nc4ccc(N5CCNCC5)cc4)c3C#N)cc(F)c2[nH]1` [Compound 14], the inhibition at 1 µM was 99%.
Same read-out and setting: the figure for `Cc1cc2c(F)c(Oc3ncnc(Nc4ccc(N5C[C@@H](C)N[C@@H](C)C5)cc4)c3C#N)ccc2[nH]1` [Compound 17] is 100%; for `Cc1cc2c(F)c(Oc3ncnc(Nc4ccc(N5C[C@@H](C)N(C)[C@@H](C)C5)cc4)c3C#N)cc(F)c2[nH]1` [Compound 45] it is 101%; for `CCN1CCN(c2ccc(Nc3ncnc(Oc4cc(F)c5[nH]c(C)cc5c4F)c3C#N)cc2)CC1C` (centres unmarked) [Compound 48] it is 100%.

A further data set deals with KDR(h) (Homo sapiens, UniProt P35968). The data set can be described thus: Kinase assay, KDR(h).
Chain of KDR(h) (P35968 20-1356): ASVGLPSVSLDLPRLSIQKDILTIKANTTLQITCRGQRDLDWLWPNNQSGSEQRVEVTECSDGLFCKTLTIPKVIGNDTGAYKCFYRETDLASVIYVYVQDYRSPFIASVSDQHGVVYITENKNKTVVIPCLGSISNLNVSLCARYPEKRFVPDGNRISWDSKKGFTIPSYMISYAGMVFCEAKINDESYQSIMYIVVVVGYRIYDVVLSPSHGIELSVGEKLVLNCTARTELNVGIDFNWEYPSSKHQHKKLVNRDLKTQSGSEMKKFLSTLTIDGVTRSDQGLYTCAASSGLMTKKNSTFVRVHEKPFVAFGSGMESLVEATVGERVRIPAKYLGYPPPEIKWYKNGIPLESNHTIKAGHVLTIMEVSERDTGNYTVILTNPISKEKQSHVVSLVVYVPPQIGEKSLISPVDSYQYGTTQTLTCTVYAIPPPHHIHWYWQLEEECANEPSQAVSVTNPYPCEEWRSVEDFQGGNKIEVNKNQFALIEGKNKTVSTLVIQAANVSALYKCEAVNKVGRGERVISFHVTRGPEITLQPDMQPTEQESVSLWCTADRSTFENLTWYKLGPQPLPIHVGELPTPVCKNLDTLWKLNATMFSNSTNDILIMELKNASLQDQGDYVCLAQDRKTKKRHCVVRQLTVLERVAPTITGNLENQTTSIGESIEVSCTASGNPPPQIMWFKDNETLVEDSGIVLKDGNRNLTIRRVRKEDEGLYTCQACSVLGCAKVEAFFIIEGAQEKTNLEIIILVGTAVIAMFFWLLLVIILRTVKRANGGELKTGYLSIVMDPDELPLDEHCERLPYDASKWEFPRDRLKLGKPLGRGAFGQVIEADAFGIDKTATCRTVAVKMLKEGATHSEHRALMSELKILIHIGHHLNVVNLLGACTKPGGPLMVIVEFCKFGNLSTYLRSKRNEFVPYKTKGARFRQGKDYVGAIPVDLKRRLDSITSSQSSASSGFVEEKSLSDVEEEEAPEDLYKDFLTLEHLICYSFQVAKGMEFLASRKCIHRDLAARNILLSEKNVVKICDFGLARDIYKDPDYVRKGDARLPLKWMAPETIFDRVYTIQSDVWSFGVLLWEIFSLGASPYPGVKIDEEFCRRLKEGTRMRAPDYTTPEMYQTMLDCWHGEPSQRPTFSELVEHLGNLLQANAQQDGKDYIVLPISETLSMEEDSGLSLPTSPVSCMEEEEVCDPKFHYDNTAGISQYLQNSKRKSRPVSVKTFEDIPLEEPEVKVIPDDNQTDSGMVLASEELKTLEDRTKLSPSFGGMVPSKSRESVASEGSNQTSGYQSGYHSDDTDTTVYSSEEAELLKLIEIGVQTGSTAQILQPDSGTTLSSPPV
Conditions: not given
Type of data set: biochemical. As for the experimental part:
as §2, §3
With `Cc1cc2c(F)c(Oc3ncnc(Nc4ccc(N5CCNCC5)cc4)c3C#N)cc(F)c2[nH]1` [Compound 14], the inhibition at 1 µM came out at 93%.
For `Cc1cc2c(F)c(Oc3ncnc(Nc4ccc(N5C[C@@H](C)N[C@@H](C)C5)cc4)c3C#N)ccc2[nH]1` [Compound 17], the inhibition at 1 µM turned out to be 96%.
`Cc1cc2c(F)c(Oc3ncnc(Nc4ccc(N5C[C@@H](C)N(C)[C@@H](C)C5)cc4)c3C#N)cc(F)c2[nH]1` [Compound 45]: the inhibition at 1 µM was determined as 73%.
With `CCN1CCN(c2ccc(Nc3ncnc(Oc4cc(F)c5[nH]c(C)cc5c4F)c3C#N)cc2)CC1C` (centres unmarked) [Compound 48], the inhibition at 1 µM was determined as 84%.

Test system in the next data set: not listed separately
The data set can be described thus: Metabolic stability, human liver microsomes.
Conditions: not given
It is filed as in vitro ADME. On the technique in general: Liver microsomes are vesicles of endoplasmic reticulum, rich in cytochrome P450 enzymes.
As to `Cc1nc(Nc2ncc(C(=O)Nc3c(C)cccc3Cl)s2)cc(N2CCN(CCO)CC2)n1` [DASATINIB, dasatinib, reference compound], the half-life was found to be 7.5 min.

For the next data set, the system named is RT112. The data set can be described thus: Inhibition of proliferation (CellTiterblue, 72 hr), RT112. Type of data set: cell-based. Particulars: Homo sapiens, RT-112, 72 h. As for the experimental part:
as §1
In the case of `Cc1cc2c(F)c(Oc3ncnc(Nc4ccc(N5CCNCC5)cc4)c3C#N)cc(F)c2[nH]1` [Compound 14], the concentration for 50% growth inhibition (GI50) was found to be 76 nM.
`Cc1cc2c(F)c(Oc3ncnc(Nc4ccc(N5C[C@@H](C)N[C@@H](C)C5)cc4)c3C#N)ccc2[nH]1` [Compound 17] returned a GI50 of 83 nM.
For `Cc1cc2c(F)c(Oc3ncnc(Nc4ccc(N5C[C@@H](C)N(C)[C@@H](C)C5)cc4)c3C#N)cc(F)c2[nH]1` [Compound 45], the concentration for 50% growth inhibition (GI50) was found to be 37 nM.
Same read-out and setting: the figure for `CCN1CCN(c2ccc(Nc3ncnc(Oc4cc(F)c5[nH]c(C)cc5c4F)c3C#N)cc2)CC1C` (centres unmarked) [Compound 48] is 57 nM.

A further data set has as its system SNU16. The data set can be described thus: Inhibition of proliferation (CellTiterblue, 72 hr), SNU16. It is filed as cell-based. The settings on record: Homo sapiens, SNU-16, 72 h. The protocol:
as §1
As for `Cc1cc2c(F)c(Oc3ncnc(Nc4ccc(N5CCNCC5)cc4)c3C#N)cc(F)c2[nH]1` [Compound 14], the GI50 is 23 nM.
Regarding `Cc1cc2c(F)c(Oc3ncnc(Nc4ccc(N5C[C@@H](C)N[C@@H](C)C5)cc4)c3C#N)ccc2[nH]1` [Compound 17], halving of growth (GI50) required 20 nM.
Turning to `Cc1cc2c(F)c(Oc3ncnc(Nc4ccc(N5C[C@@H](C)N(C)[C@@H](C)C5)cc4)c3C#N)cc(F)c2[nH]1` [Compound 45], growth was halved (GI50) at 15 nM.
`CCN1CCN(c2ccc(Nc3ncnc(Oc4cc(F)c5[nH]c(C)cc5c4F)c3C#N)cc2)CC1C` (centres unmarked) [Compound 48] had a concentration for 50% growth inhibition (GI50) of 35 nM.

For another data set, the system named is KG1a. The data set can be described thus: Inhibition of proliferation (CellTiterblue, 72 hr), KG1a. It is filed as cell-based, human. The settings on record: Homo sapiens, KG-1a; 72 hr. The protocol: as §1
`Cc1cc2c(F)c(Oc3ncnc(Nc4ccc(N5CCNCC5)cc4)c3C#N)cc(F)c2[nH]1` [Compound 14] yielded a 50% growth inhibitory concentration (GI50) of 1.6 nM.
On to `Cc1cc2c(F)c(Oc3ncnc(Nc4ccc(N5C[C@@H](C)N[C@@H](C)C5)cc4)c3C#N)ccc2[nH]1` [Compound 17], for which the GI50 amounted to 0.74 nM.
With `Cc1cc2c(F)c(Oc3ncnc(Nc4ccc(N5C[C@@H](C)N(C)[C@@H](C)C5)cc4)c3C#N)cc(F)c2[nH]1` [Compound 45], the concentration for 50% growth inhibition (GI50) was determined as 0.43 nM.
The same measure, in the same setting: the result for `CCN1CCN(c2ccc(Nc3ncnc(Oc4cc(F)c5[nH]c(C)cc5c4F)c3C#N)cc2)CC1C` (centres unmarked) [Compound 48] reads 0.55 nM.

Test system in the next data set: not listed separately
The data set can be described thus: Metabolic stability, mouse liver microsomes. It is filed as in vitro ADME.
Conditions: not given
`Cc1nc(Nc2ncc(C(=O)Nc3c(C)cccc3Cl)s2)cc(N2CCN(CCO)CC2)n1` [DASATINIB, dasatinib, reference compound] gave a half-life of 9.2 min.
